≈ marks a conversion by molar mass, not a printed value. Where two headings read alike, the source gives them in different places.
How the values were obtained:
[1] = Caco-2 cell-based permeability assay; format: in vitro ADME; conditions: human
[2] = test system: L929 cells; assay: Necroptosis inhibition in L929 cells + mTNF-α, 8 h, AK release; format: cell-based, murine; conditions: for EC50: Mus musculus, L929
Description: A total of 251,328 small-molecule compounds were screened in L929 cells incubated with mTNF-α alone or together with test compounds at 31.7 μM for 8 h. Intraplate controls for data normalization consisted of untreated cell wells. L929 cells co-incubated with mTNF-α and SN-2668/Nec-1 served as positive controls (Fig. S2A). […] In HTS step one (primary screening), valid data was obtained for 247,738 compounds, 3353 of which were within the established hit selection criteria, corresponding to a 1.4% hit rate for the full library (Fig. 1a).
(§1) The second screening step aimed to determine the EC50 of selected compounds. L929 and Jurkat FADD^-/- cells were co-incubated with TNF-α and test compounds at 10-point concentration range (0.004–100 μM) for 8 h. Compound-mediated inhibition of necroptosis was assessed through AK release and the EC50 calculated. Jurkat cells were used to validate results in human cells. […] In HTS step two, 4374 compounds (3353 hits from HTS step one plus 1021 near neighbours) were evaluated for potency by dose-response curves. From those, 1,438 hit compounds passed the selection criteria on both cell lines, corresponding to a […] hit rate.
(§2) L929 cells were co-incubated for 8 h with mTNF-α and test compounds at 31.7 μM after which AK release was measured. […] Hit compounds were then evaluated for apoptosis modulation. Further details are provided as Supplementary Information.
(§3) Cell treatments and viability assays. Cells were seeded in 384- or 96-well plates at 1000 or 8000 cells/well (in 12.5 μL or 100 μL final volume), respectively, using a Multidrop^TM Combi Reagent Dispenser (ThermoFisher Scientific). For inducing necroptosis, L929 and Jurkat FADD^-/- cells were incubated with 10 ng/mL mTNF-α and hTNF-α respectively; BV2 cells with 25 µM Z-VAD-FMK, and HT29 cells with 20 ng/mL hTNF-α, 250 nM Smac mimetic BV6 and 10 μM Z-VAD-FMK. Cells were co-incubated in the presence of test compounds at target concentrations for 8 or 24 h. Nec-1 at 29.2 μM was used as positive control. For apoptosis assays, Jurkat E6.1 cells were co-incubated with 0.5 μg/mL CHX and test compounds at target concentrations for 8 h. In cytotoxicity assays, HepG2 and L929 cells were seeded in 96-well plates at 5000 cells/well, in 100 μL final volume. Twenty-four hours after seeding, cells were incubated with test compounds at 50 and 100 μM for additional 24 h.
(§4) Adenylate kinase (AK) and lactate dehydrogenase (LDH) release from damaged cells were measured using the Toxilight BioAssay Kit (Lonza, Basel, Switzerland) and the Cytotoxicity Detection Kit (Roche Diagnostics GmbH, Mannheim, Germany), respectively. Adenosine triphosphate (ATP) metabolism was evaluated using CellTiter-Glo^TM Luminescent Cell Viability Assay (Promega, Madison, WI, USA). Apoptosis was determined by the measurement of caspase-3/-7 activity using the Caspase-Glo® 3/7 Assay (Promega) according to the manufacturer’s instructions. Cellular metabolic activity was measured using CellTiter 96® Aqueous Non-Radioactive Cell Proliferation (MTS) Assay (Promega). Luminescence signal was recorded using a GloMax®-MultiDetection System (Promega) and absorbance with a Model 680 microplate reader (Bio-Rad Laboratories Inc, Hercules, CA, USA).
Primary high-throughput screen. Test compounds were arrayed in 384-well white microtiter plates and screened for their potential as necroptosis inhibitors at 32 μM target concentration. Eight hours after co-incubation of L929 cells with mTNF-α and test compounds, AK release was evaluated. […]

[3] = Aqueous solubility; format: physicochemical; conditions: read-out: Aqueous solubility, concentration
[4] = MDCK-MDR1 cell-based permeability assay; format: in vitro ADME; conditions: dog
[5] = test system: Jurkat FADD-/- cells; assay: Necroptosis inhibition in Jurkat FADD-/- cells + TNF-α, 8 h, AK release; format: cell-based; conditions: Homo sapiens
Description: as §1, §2
as §3, with “In cytotoxicity assays, HepG2 and L929 cells were seeded in 96-well plates at 5000 cells/well, in 100 μL final volume. Twenty-four hours after seeding, cells were incubated with test compounds at 50 and 100 μM for additional 24 h.” left out
as §4
Primary high-throughput screen. […] Eight hours after co-incubation of L929 cells with mTNF-α and test compounds, AK release was evaluated. […] Eight hours after co-incubation of L929 or Jurkat FADD^-/- cells with TNF-α and test compounds, AK release was evaluated. […]

[6] = 8 h, 10 ng/mL mTNF-α, AK release, screening step 1 as printed, read-out: EC50 L929 + TNF-α (in vitro)
[7] = read-out: L929 + TNF-α (in vitro) pEC50 (converted)
[8] = 8 h, screening step 2, AK release, read-out: EC50 Jurkat FADD(-/-) + TNF-α (in vitro)
[9] = read-out: Jurkat FADD (-/-) (in vitro) pEC50 (converted)

O=C(c1cnn(Cc2ccccc2)c1)N1CCOc2ccccc2C1 [SN-6109]
Papp A→B [1]: 31 ×10⁻⁶ cm/s | Papp B→A [1]: 16 ×10⁻⁶ cm/s | EC50 [2, 6]: 6.3 µM | EC50 [2, 7]: 6.31 µM | solubility ([3]; aqueous medium (not further specified)): 47 µM (≈ 15.7 µg/mL) | Papp A→B [4]: 35 ×10⁻⁶ cm/s | Papp B→A [4]: 18 ×10⁻⁶ cm/s | EC50 [5, 8]: 630 nM | EC50 [5, 9]: 631 nM

CN1C(=O)C(Cc2c[nH]c3ccccc23)NC1=S (centres unmarked) [Nec-1, necrostatin-1]
efflux ratio [1]: 0.36 | Papp A→B [1]: 38 ×10⁻⁶ cm/s | Papp B→A [1]: 14 ×10⁻⁶ cm/s | Membrane integrity ([2]; DMSO = 0, no addition = −100, L929, 10 ng/mL mTNF-α, 8 h, Nec-1 at 29.2 μM): > −100 percentage of control | EC50 [2, 6]: 1.25 µM | EC50 [2, 7]: 1.26 µM | solubility [3]: 97 µM (≈ 25.2 µg/mL) | Papp A→B [4]: 31 ×10⁻⁶ cm/s | Papp B→A [4]: 34 ×10⁻⁶ cm/s | EC50 [5, 8]: 390 nM | EC50 [5, 9]: 398 nM
